Assay results as given in paper PMC12097015, “Development of MDM2‐Targeting PROTAC for Advancing Bone Regeneration” (Advanced Science, 2025).
Blank lines part the entries; values can stand above or below the compound they belong to.

Assays:
EGFP‐MDM2 = assay: EGFP-MDM2 fluorescence / live imaging degradation assay; type: cell-based
Experimental: HeLa cells were cultured in DMEM (Welgene, LM001‐05) supplemented with 10% FBS (Welgene, S001‐07). For transient transfection, the cells were seeded at ≈70% confluence. The following day, transfection was performed using Lipofectamine 3000 (Invitrogen, L3000015) for 24 h according to the manufacturer's protocol. The cells were transfected with 100 ng of EGFP‐MDM2 per well in the 96‐well plate and were transfected with 2 µg of MDM2 WT and 2 µg of HA‐ubiquitin, total 4 µg per well in the 6‐well plate.
To construct the EGFP‐MDM2 plasmid DNA, MDM2 WT was amplified by PCR using specific primers. The PCR products were digested with BamH1 and EcoR1 to generate compatible ends. The plasmid backbone, EGFP‐C1, previously digested with the same enzyme, was ligated into the digested PCR product using T4 ligase (Biolabs, M0202S). The resulting plasmid construct was confirmed using restriction enzyme digestion and DNA sequencing. MDM2 WT (#16233) and HA‐ubiquitin (#18712) were purchased from Addgene (used primer sequences, see Table S2, Supporting Information).
Real‐time Live cell imaging (phase contrast, EGFP fluorescence) was performed to monitor EGFP‐MDM2 intensity at 7 min intervals after compound treatment using Cytation5 (Agilent) laser autofocus conditions to capture EGFP fluorescence to assess intensity. For fluorescence imaging, the cells were fixed using 4% PFA and washed three times with 1X dPBS. Fluorescence imaging was performed using the Cytation5. The intensity of fluorescence was assessed by tracking the fluorescence of individual cells in each image using the Time‐lapse analyzer or ROI measure feature of the Fiji ImageJ software (Version 1.54 h, USA).

MDM2 [1] = molecular target: T1, MDM2 (Homo sapiens, UniProt Q00987); assay: MDM2 degradation by western blot in hBMSCs; type: cell-based; design: endogenous in cells; host or cells: hBMSCs; conditions: for MDM2 degradation (western blot) / decrease in MDM2 levels compared to the basal level: 10 μΜ for 1 h
Experimental: Human Bone Marrow‐derived Mesenchymal Stem Cells (hBMSCs) were provided by Professor Lee's laboratory, and cells from passages four to nine were used for all experiments. hBMSCs were cultured in alpha‐minimum essential medium (Welgene, LM008‐01) supplemented with 10% Fetal Bovine Serum (FBS) (Gibco, US origin, 16000–044) and 1% penicillin/streptomycin (Gibco, 15140‐122).
(§1) After discarding the medium and washing the cells twice with cold dPBS, the cells were collected using a scraper and lysed using RIPA buffer (GenDEPOT, R4200‐010) containing protease and phosphatase inhibitors (GenDEPOT, P3200‐001). The collected samples were centrifuged at 13 200 rpm for 10 min at 4 °C, and the supernatant containing total protein was collected. SDS‐PAGE gels (10–12%) were prepared, and protein samples were mixed with 5X loading buffer containing reducing agent (Biosesang, S2002) and heated at 98 °C for 5 min. Equal amounts of protein samples were loaded onto a gel, separated by electrophoresis, and transferred onto nitrocellulose membranes using a Dry Transfer Stacks Kit (Invitrogen, IB23001). The membrane was blocked with 5% nonfat milk in 1X TBST for 1 h at room temperature to prevent nonspecific binding. The membranes were incubated with primary antibodies specific to the target proteins overnight at 4 °C with gentle shaking. The next day, the membrane was washed three times with TBST at 10 min intervals to remove unbound primary antibodies. The membranes were incubated with secondary antibodies (anti‐rabbit and anti‐mouse) conjugated to horseradish peroxidase (HRP) for 1 h at room temperature. The membrane was washed three times with 1X TBST at 10 min intervals to remove unbound secondary antibodies. After washing, a chemiluminescent substrate (ECL, Millipore, WBULS0100) was applied to the membrane to visualize protein bands using a chemiluminescence detector (for the antibodies used, see Table S2, Supporting Information).
The DC50 and Dmax values were calculated by western blot band quantification according to compound concentrations. The quantification value was normalized to the value relative to the untreated group and calculated using the sigmoidal dose‐response (variable slope) equation in GraphPad Prism.
Target sequence in this assay (Q00987 whole entry): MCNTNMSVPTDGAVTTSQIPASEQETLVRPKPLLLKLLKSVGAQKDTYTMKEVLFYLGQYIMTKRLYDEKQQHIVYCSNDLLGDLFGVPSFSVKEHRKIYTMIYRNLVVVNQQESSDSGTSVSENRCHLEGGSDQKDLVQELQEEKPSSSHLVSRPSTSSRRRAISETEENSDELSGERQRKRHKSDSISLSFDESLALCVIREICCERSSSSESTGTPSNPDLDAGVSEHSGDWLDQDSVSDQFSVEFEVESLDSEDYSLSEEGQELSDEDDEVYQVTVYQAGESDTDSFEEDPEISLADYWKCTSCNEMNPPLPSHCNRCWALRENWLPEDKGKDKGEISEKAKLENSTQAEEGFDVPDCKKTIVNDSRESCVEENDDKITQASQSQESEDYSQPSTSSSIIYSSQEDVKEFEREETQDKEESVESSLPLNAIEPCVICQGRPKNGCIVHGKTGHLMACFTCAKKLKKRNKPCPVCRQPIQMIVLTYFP

MDM2 [2] = molecular target: T1, MDM2; assay: Microscale thermophoresis (MST) binding assay; design: made in house; host or cells: E. coli BL21 (DE3); conditions: His-Tag MDM2, n = 3, read-out: dissociation constant (Kd)
Target sequence in this assay (Q00987 whole entry, species assumed): as the sequence (Q00987 whole entry) above
Experimental: E. coli BL21 (DE3) competent cells transformed with pSPEL870 were used to express MDM2 protein.^[ [27] ^] The recombinant strain was cultured in 500 mL 2XYT at 37 °C until the optical density (OD600 ) reached 0.5. Protein expression was induced by adding 0.2 mM isopropyl β‐D‐1‐thiogalactopyranoside (IPTG; Bioshop, Canada) at 20 °C overnight. […] The protein was purified using Ni‐NTA resin (Qiagen, Germany), according to the manufacturer's protocol. The purified protein was buffer exchanged with phosphate‐buffered saline (PBS, pH 7.4) using a centrifugal filter unit (MWCO: 10 K; Merck Millipore, USA). The protein was stored at –20 °C in PBS with 20% glycerol and 1 mM dithiothreitol (DTT).
The His‐Tag MDM2 protein was labeled using a His‐Tag Labeling Kit RED‐tris‐NTA second Generation (NanoTemper, MO‐L018) according to the manufacturer's instructions. […] The final mixtures were transferred to capillaries (NanoTemper, MO‐K022) and the samples were measured using a Monolith NT.115Pico (NanoTemper) instrument (auto LED power; medium MST power). […] The signals were represented as normalized changes in fluorescence (Fnorm ) upon ligand binding. Baseline‐corrected normalized fluorescence (DFnorm ) was obtained from Fnorm values using MO Affinity Analysis, and the dissociation constants (Kd ) were determined by curve fitting (variable slope model) using GraphPad Prism 10.

MDM2 [3] = molecular target: T1, MDM2; assay: Immunoblot with the intracellular proteasome system blocked by a proteasome inhibitor; type: cell-based; conditions: 0.5–2 μΜ carfilzomib with PROTAC
Experimental: as §1, with “After washing, a chemiluminescent substrate (ECL, Millipore, WBULS0100) was applied to the membrane to visualize protein bands using a chemiluminescence detector (for the antibodies used, see Table S2, Supporting Information).” left out
Target sequence in this assay (Q00987 whole entry, species assumed): as the sequence (Q00987 whole entry) above

[4] = system: OVX-induced osteoporosis model; assay: Ovariectomy (OVX)-induced osteoporosis mouse model; type: in vivo, C57BL6 mice; conditions: OVX mice
Experimental: -Establishment of Ovariectomized Mice Model: The experimental protocols were approved by the IACUC (Approval code: IACUC230118) at the CHA Laboratory Animal Research Center. The mice were handled in compliance with the Guidelines for the Care and Use of Animals at the institution. Female C57BL6 mice (seven weeks old (n = 57)) were randomly divided into six groups (n = 8-10): […] All surgeries and pump implantations were performed under aseptic conditions. Mice were anesthetized before removing both sides of the ovaries. In the fourth week following surgery, an Alzet osmotic pump (Durect Corp, #1004) was implanted in the mice. […] Images were acquired at an effective pixel size of 50 μm (130 kV and 60 μA radiation source; 1.0 mm aluminum filter). Subsequently, 3D images were reconstructed from the 2D X-ray projections by implementing the Feldkamp algorithm, and appropriate image corrections, including ring artifact correction, beam hardening correction, and fine-tuning, were processed using NRecon software (SkyScan 1173, Belgium). The dynamic image range (contrast limits) was determined at 0-0.3 in units of attenuation coefficient and was applied to all datasets for optimum image contrast. After acquisition and reconstruction of the datasets, images were first reoriented on each 3D plane using DataViewer software (SkyScan 1173, Belgium) to align the long axis of the femur parallel to the coronal and sagittal planes. Next, 3D morphometric analyses of the distal femur and body of the lumbar vertebrae were performed using CT-Analyzer software (SkyScan 1173, Belgium). Regarding the region of interest (ROI), this work analyzed the 1.5 mm […] trabecular bone of the distal femur metaphysis, excluding the growth plate. The ROIs were delineated using a freehand drawing tool while maintaining a […] clearance from the endosteal surface. […] A global threshold of 60 (1.01573 g cm^-3) was applied to all scans to extract a physiologically accurate representation of the trabecular bone phase. […] All quantitative and structural parameters followed the nomenclature and units recommended by the American Society for Bone and Mineral Research (ASBMR) Histomorphometry Nomenclature Committee. After data quantification,^[ [26b] ^] 3D rendered images were generated to visualize the analyzed regions using the marching cube method. -H&E staining: Following decalcification, the specimens were fixed in paraffin and longitudinally sliced to a thickness of 3 μm using a microtome. Subsequently, each sample was affixed to a slide and exposed to a temperature of 55 °C. […] The slides underwent a 1 min wash in flowing purified water and immersed in Harris hematoxylin-I for 5 min, followed by a 1 min wash under flowing tap water. Sections were briefly immersed in ammonia water for 30 s and washed with tap water for 3 min. Subsequently, the sections were stained with Eosin Y for 2 min and 30 s, followed by gradual drying in 95%-100% ethanol. Any residual stain was rinsed with distilled water and each section was mounted. -Masson's trichrome staining: Following deparaffinization and hydration, the sections underwent treatment with a mordant containing a 5% iron alum solution in a dry oven at 56 °C for 30 min. Sections were washed under running tap water for 5-6 min to remove picric acid. Sections were stained with Weigert's iron hematoxylin solution for 10 min, followed by rinsing with purified water. A 5 min staining with Biebrich scarlet-acid fuchsin solution ensued, succeeded by washing with purified water. The sections were immersed in a phosphomolybdic-phosphotungstic acid solution for 5 min. After discarding the solution, the sections were washed with distilled water. Differentiation was performed in 1% glacial acetic acid solution for 3 min. The solution was discarded, and the remaining stain was washed with distilled water.

hBMSCs [5] = assay: Cell viability / apoptosis of hBMSCs; type: cell-based, human
osteocalcin (OCN) = assay: Immunostaining of osteogenic markers in hBMSCs; type: cell-based, human; conditions: 10 µM
hBMSCs [6] = assay: Calcium deposit staining (X-Rhod-1) in hBMSCs; type: cell-based, human; conditions: X‐Rhod‐1, p < 0.05
Experimental: hBMSCs were differentiated in the presence of the 10 mM β‐glycerophosphate (Sigma‐Aldrich, G9422) and 50 µM ascorbic acid (Sigma‐Aldrich, A4403) in culture medium for 10 d. Subsequently, the cells were fixed with 4% PFA for 30 min, followed by two washes with Mg^2+‐and Ca^2+‐free dPBS (Welgene, LB‐204). To stain for calcium, X‐Rhod‐1 (Invitrogen, X14210) dye was diluted in Mg^2+‐and Ca^2+‐free dPBS at a concentration of 1 µM and incubated at room temperature in the dark for 1 h. The cells were then washed five times with Mg^2+‐and Ca^2+‐free dPBS at 10 min intervals. The samples were observed under a Cytation5 microscope (Agilent Technologies) at a wavelength of 595 nm.

[7] = alendronate comparison study, 0.5 mg kg^−1, n = 6

SMILES: O=C1CCC(N2Cc3c(C#CCCCNC(=O)c4ccc(NC(=O)[C@@H]5NC6(CCCCC6)[C@@]6(C(=O)Nc7cc(Cl)ccc76)[C@H]5c5cccc(Cl)c5F)cc4)cccc3C2=O)C(=O)N1 (stereo partly drawn) [MD224, reference compound]
- degradation efficiency of EGFP‐MDM2 by concentration (EGFP‐MDM2; low concentrations (0.01–0.1 µM) versus higher concentrations (1–10 µM)): greater degradation efficiency of EGFP‐MDM2 compared to higher concentrations

SMILES: CC(C)C[C@H](NC(=O)[C@H](CCc1ccccc1)NC(=O)CN1CCOCC1)C(=O)N[C@@H](Cc1ccccc1)C(=O)N[C@@H](CC(C)C)C(=O)[C@@]1(C)CO1 [carfilzomib]
- effect on PROTAC-induced MDM2 proteolysis (MDM2 [3]): blocked the efficacy of PROTAC in a dose‐dependent manner

SMILES: NCCCC(O)(P(=O)(O)O)P(=O)(O)O [alendronate, reference compound]
- increase in trabecular thickness (Tb.Th) relative to the OVX group [4, 7]: 17.07%
- recovery in BV/TV relative to the OVX group [4, 7]: 38.66%

SMILES: COc1ccc(C2=N[C@@H](c3ccc(Cl)cc3)[C@@H](c3ccc(Cl)cc3)N2C(=O)N2CCNC(=O)C2)c(OC(C)C)c1 [Nutlin-3, reference compound]
- cell viability (hBMSCs [5]): without adversely affecting cell viability
- bone histology (H&E staining) versus OVX group ([4]; tibia and femur tissues): no significant differences
- osteocalcin (OCN) protein intensity compared to the control group (osteocalcin (OCN)): no statistically significant difference
- calcium deposits compared to the control group (hBMSCs [6]): significantly increased

The next lines start with results.

- MDM2 degradation (western blot) (MDM2 [1]): did not induce the degradation of MDM2
SMILES: COc1ccc(C2=N[C@H](c3ccc(Cl)cc3)[C@H](c3ccc(Cl)cc3)N2C(=O)N2CCN(CC(=O)OC(C)(C)C)C(=O)C2)c(OC(C)C)c1 [CL139]

- MDM2 degradation (western blot) (MDM2 [1]): did not induce the degradation of MDM2
SMILES: COc1ccc(C2=N[C@@H](c3ccc(Cl)cc3)[C@@H](c3ccc(Cl)cc3)N2C(=O)N2CCN(CC(=O)NCCOCCOCCNC(=O)CN3CCN(C(=O)N4C(c5ccc(OC)cc5OC(C)C)=N[C@H](c5ccc(Cl)cc5)[C@@H]4c4ccc(Cl)cc4)CC3=O)C(=O)C2)c(OC(C)C)c1 [CL117]

- MDM2 degradation (western blot) (MDM2 [1]): effectively decreased MDM2 levels
- decrease in MDM2 levels compared to the basal level (MDM2 [1]): over 80%
- maximal degradation concentration (Dmax) (MDM2 [1]; quantified western blot, 1 nM to 50 µM, n = 2): 0.5 μΜ
- DC50 (MDM2 [1]; quantified western blot, 1 nM to 50 µM, n = 2, read-out: half‐maximal degradation concentration (DC50)): 60 nM
- Kd (MDM2 [2]): 1270 nM
SMILES: COc1ccc(C2=NC(c3ccc(Cl)cc3)C(c3ccc(Cl)cc3)N2C(=O)N2CCN(CC(=O)NCCCCCCCC#Cc3cccc4c3C(=O)N(C3CCC(=O)NC3=O)C4=O)C(=O)C2)c(OC(C)C)c1 (stereo not drawn) [CL174]
- concentration at which maximum degradation efficiency was achieved (EGFP‐MDM2; live imaging, 0.01 to 10 µM): 1 µM
- nuclear EGFP signal (EGFP‐MDM2; live imaging, treatment for 4 h): almost completely turned off the nuclear EGFP signal

- decrease in MDM2 levels compared to the basal level (MDM2 [1]): over 80%
SMILES: COc1ccc(C2=N[C@H](c3ccc(Cl)cc3)[C@H](c3ccc(Cl)cc3)N2C(=O)N2CCN(CC(=O)NCCCCCCCCCCCOc3cccc4c3C(=O)N(C3CCC(=O)NC3=O)C4=O)C(=O)C2)c(OC(C)C)c1 (stereo partly drawn) [CL145]
